The target of the experiment is GTPase KRas (Homo sapiens, UniProt P01116, G12V). Description: Inhibition of alexa fluor 647-labeled kinase tracer 314 binding to biotinylated-KRAS G12V mutant (unknown origin) measured after 60 mins by HTRF competition binding assay. A general note: TR-FRET usually uses a lanthanide donor and a delayed reading to cut background.

Numbered stars: 1 amine (or outer) side, 2 acyl side, 3 side chain; on linkers, the order of the positions; unused ones are H or OH. Bridge positions count the residues as written; N and C are the ends. Square brackets hold non-standard residues; d marks the D form. Peptide text beside a SMILES is read from it. ξ: configuration not given here. Nle(4-yne,6-yl) = O=C([C@H](CC#CC[*:3])N[*:1])[*:2]; ξIle = CC[C@H](C)C(N)C(=O)O

Take `CC(=O)N[C@@H](CCC(=O)O)C(=O)N[C@H]1CCCn2nncc2COC[C@@H](C(=O)N[C@@H](CC(C)C)C(=O)N[C@@H](C)C(=O)N2CCC[C@H]2C(N)=O)NC(=O)[C@H](Cc2cccc3ccccc23)NC(=O)[C@@H]2CCCN2C(=O)CNC1=O`: the IC50 is greater than 83 µM (read-out: IC50) and greater than 79.4 µM (read-out: pIC50 (converted)).

For the compound `NC(=O)[C@H](CC1CCCCC1)NC(=O)[C@@H]1COCc2cnnn2CCCCC(=O)NCC(=O)N2CCC[C@H]2C(=O)N[C@@H](Cc2cccc3ccccc23)C(=O)N1`, the IC50 (read-out: IC50) was determined as 100 µM.

On to `CC(C)C[C@@H](C(N)=O)N(C)C(=O)[C@@H]1COCc2cnnn2CCCCC(=O)NCC(=O)N2CCC[C@H]2C(=O)N[C@@H](Cc2cccc3ccccc23)C(=O)N1`, for which the IC50 (read-out: IC50) is 26 µM.

As to `CC(C)C[C@H](NC(=O)[C@@H]1COCc2cnnn2CCCCC(=O)NCC(=O)N2CC[C@H]2C(=O)N[C@@H](Cc2cccc3ccccc23)C(=O)N1)C(N)=O`, where the note is “read-out: IC50”, the IC50 was determined as 32 µM.

For `CC[C@H](C)C1NC(=O)[C@@H]2CCCN2C(=O)[C@H](Cc2ccc(O)cc2)NC(=O)[C@@H](NC(=O)[C@H](CC(=O)O)NC(=O)[C@H](Cc2ccc(O)cc2)NC(=O)[C@H](Cc2ccccc2)NC(=O)[C@H](Cc2c[nH]cn2)NC(=O)[C@@H](N)Cc2ccccc2)CC#CCSC[C@@H](C(=O)N[C@@H](CC(C)C)C(=O)N[C@H](C(=O)N2CCC[C@H]2C(=O)N2CCC[C@H]2C(N)=O)[C@@H](C)CC)NC1=O` (some centres undefined) (H-FHFYD[Nle(4-yne,6-yl)]YP[ξIle]CLIPP-NH2; thioether 6-10), under “read-out: IC50”, the IC50 was found to be 0.023 µM.

In the case of `CC(C)C[C@H](NC(=O)[C@@H]1COCc2cnnn2CCCCC(=O)NCC(=O)N2CCC[C@H]2C(=O)N[C@@H](CC2CCCCC2)C(=O)N1)C(N)=O`, the IC50 (read-out: IC50) was found to be 100 µM.

For `CC[C@@H](C)[C@@H]1NC(=O)[C@@H]2CCCN2C(=O)[C@H](Cc2ccc(O)cc2)NC(=O)[C@@H](NC(=O)[C@H](CC(=O)O)NC(C)=O)CCCn2nncc2COC[C@@H](C(=O)N[C@@H](CC(C)C)C(=O)N[C@@H](CC(C)C)C(=O)N2CCC[C@H]2C(N)=O)NC1=O`, the IC50 was greater than 89 µM (read-out: IC50) and greater than 79.4 µM (read-out: pIC50 (converted)).

Take `CC(C)C[C@H](NC(=O)[C@@H]1COCc2cnnn2CCCCCCCC(=O)N2CCC[C@H]2C(=O)N[C@@H](Cc2cccc3ccccc23)C(=O)N1)C(N)=O`: under “read-out: IC50”, the IC50 was found to be 81 µM.

Take `NC(=O)[C@@H](NC(=O)[C@@H]1COCc2cnnn2CCCCC(=O)NCC(=O)N2CCC[C@H]2C(=O)N[C@@H](Cc2cccc3ccccc23)C(=O)N1)C1CCCCC1`: under “read-out: IC50”, the IC50 was determined as 78 µM.

`CC(C)C[C@H](NC(=O)[C@@H]1COCc2cnnn2CCCCC(=O)NCC(=O)N2CCC[C@H]2C(=O)N[C@@H](CC(C)C)C(=O)N1)C(N)=O`: the IC50 (read-out: IC50) came to 60 µM.

As to `CC(C)C[C@H](CC(=O)[C@@H]1COCc2cnnn2CCCCC(=O)NCC(=O)N2CCC[C@H]2C(=O)C[C@@H](C)C(=O)C1)C(N)=O`, where the note is “read-out: IC50”, the IC50 turned out to be 91 µM.

For `CC(C)C[C@H](NC(=O)[C@@H]1COCc2cnnn2CCCCC(=O)N[C@@H](CCC(=O)O)C(=O)N2CCC[C@H]2C(=O)N[C@@H](Cc2cccc3ccccc23)C(=O)N1)C(N)=O`, for the setting “read-out: IC50”, the IC50 worked out at 49 µM.

In the case of `CC(C)C[C@H](NC(=O)[C@@H]1COCc2cnnn2CCCCC(=O)N2CCC[C@H]2C(=O)N[C@@H](Cc2cccc3ccccc23)C(=O)N1)C(N)=O`, where the note is “read-out: IC50”, the IC50 worked out at 48 µM.

Take `CC(C)C[C@H](NC(=O)[C@H]1CCn2nncc2CCCC(=O)NCC(=O)N2CCC[C@H]2C(=O)N[C@@H](Cc2cccc3ccccc23)C(=O)N1)C(N)=O`: the IC50 (read-out: IC50) worked out at 13 µM.

As for `CC(C)C[C@H](NC(=O)[C@@H]1COCc2cnnn2CCCCC(=O)NCC(=O)N2CC[C@@H](O)[C@H]2C(=O)N[C@@H](Cc2cccc3ccccc23)C(=O)N1)C(N)=O`, the IC50 (read-out: IC50) is 70 µM.

For `CC(C)C[C@H](NC(=O)[C@@H]1COCc2cnnn2CCCCC(=O)NCC(=O)N2CCC[C@H]2C(=O)N[C@@H](Cc2c[nH]c3ccccc23)C(=O)N1)C(N)=O`, the IC50 (read-out: IC50) stood at 18 µM.

`CC(C)C[C@H](NC(=O)[C@@H]1COCc2cnnn2CCCCC(=O)NCC(=O)NC(C)(C)C(=O)N[C@@H](Cc2cccc3ccccc23)C(=O)N1)C(N)=O`: the IC50 (read-out: IC50) worked out at 20 µM.

The values above are taken from ChEMBL document CHEMBL5055671, “Targeting a Novel KRAS Binding Site: Application of One-Component Stapling of Small (5-6-mer) Peptides” (J Med Chem, 2021).
